Assay results published in the NIST ThermoML archive (doi:10.1016/j.jct.2011.05.028).
Several values for one entry are separate records, joined by “and”; a condition that tells them apart may be missing. Equal entries are not always repeated.

Details: Liquid, Transpiration method

[N-]=[N+]=NC1CCCC1 [cyclopentyl azide]
Details | vapor or sublimation pressure
275.5 K | 0.3701 kPa
279.2 K | 0.4454 kPa
281.3 K | 0.48 kPa
283.2 K | 0.5664 kPa
285.3 K | 0.6268 kPa
287 K | 0.722 kPa
288.7 K | 0.7419 kPa
291.1 K | 0.8591 kPa
293 K | 0.9879 kPa and 0.9833 kPa
295.1 K | 1.102 kPa
295.8 K | 1.1 kPa
297.2 K | 1.342 kPa
298.5 K | 1.418 kPa
299.1 K | 1.45 kPa
300.8 K | 1.466 kPa
301.1 K | 1.615 kPa
303.1 K | 1.88 kPa
303.3 K | 1.899 kPa
305.8 K | 1.953 kPa
306.1 K | 2.066 kPa
308.2 K | 2.239 kPa
310.7 K | 2.494 kPa
313.3 K | 2.898 kPa
317.9 K | 3.913 kPa
323.1 K | 4.896 kPa
327.7 K | 5.951 kPa
333.4 K | 7.854 kPa

CCOC(=O)CN=[N+]=[N-] [ethyl azidoacetate]
Details | vapor or sublimation pressure [kPa]
301.4 K | 0.1784
304.8 K | 0.2378
308.3 K | 0.3083
314.3 K | 0.4549
320.2 K | 0.6452
323.2 K | 0.7874
326.2 K | 0.9687
332.2 K | 1.38
338.1 K | 1.929
341.1 K | 2.397
344.3 K | 2.714

[N-]=[N+]=NCCO [2-azidoethanol]
Details | vapor or sublimation pressure [kPa]
284.6 K | 0.021
287.3 K | 0.0267
288.8 K | 0.0298
291.8 K | 0.0398
294.8 K | 0.052
297.7 K | 0.0664
300.7 K | 0.088
303.6 K | 0.1076
306.6 K | 0.1398
309 K | 0.1676
309.6 K | 0.1718
312 K | 0.2073
312.6 K | 0.2168
316 K | 0.2782
316.1 K | 0.2882

CCOCCN=[N+]=[N-] [(azidoethoxy)ethane]
Details | vapor or sublimation pressure [kPa]
274.1 K | 0.2423
275.7 K | 0.2804
277.1 K | 0.3181
277.9 K | 0.3191
278.7 K | 0.3325
279.4 K | 0.3333
280.2 K | 0.3892
281.5 K | 0.4113
282.4 K | 0.4364
283.2 K | 0.4705
284.8 K | 0.5331
286.2 K | 0.5994
287.8 K | 0.6765
289.2 K | 0.7246
290.7 K | 0.7842
292.2 K | 0.8444
292.3 K | 0.8535
293.7 K | 0.9715
295.2 K | 1.061
296.7 K | 1.173
298.2 K | 1.313
300.7 K | 1.55

[N-]=[N+]=NCSc1ccccc1 [azidomethyl phenyl sulfide]
Details | vapor or sublimation pressure [kPa]
299.6 K | 0.00448
303.5 K | 0.0064
307.3 K | 0.00918
310.3 K | 0.01158
313.3 K | 0.01502
316.2 K | 0.01866
319.2 K | 0.02463
324.2 K | 0.03511

[N-]=[N+]=NC1CCCCC1 [azidocyclohexane]
Details | vapor or sublimation pressure [kPa]
279.6 K | 0.0856
281.6 K | 0.1002
283.4 K | 0.1159
285.3 K | 0.1366
286.6 K | 0.1432
287.2 K | 0.1571
288.9 K | 0.1754
290.2 K | 0.1885
291.9 K | 0.2153
293.2 K | 0.231
295.5 K | 0.2749
297.1 K | 0.3013
298.3 K | 0.3332
300.1 K | 0.3875
301.3 K | 0.3917
303.1 K | 0.4574

CC(=O)OC1CCCC1 [cyclopentyl ethanoate]
Details | vapor or sublimation pressure [kPa]
274.1 K | 0.0795
276.1 K | 0.0894
278.2 K | 0.1067
281.3 K | 0.1295
283.2 K | 0.1597
286.3 K | 0.1983
288.4 K | 0.2248
291.2 K | 0.278
293.2 K | 0.3029
296.4 K | 0.4022
298.2 K | 0.4443
303.2 K | 0.6114
308.4 K | 0.8519
